According to patent publication US20210277003A1, “OGA INHIBITOR COMPOUNDS” (Janssen Pharmaceutica NV, priority 2018, published 2021):

Assays:
[1] = molecular target: T1, recombinant human Meningioma Expressed Antigen 5 (MGEA5), also referred to as O-GlcNAcase (OGA) (Homo sapiens, UniProt O60502); experiment: OGA biochemical assay: inhibition of hydrolysis of fluorescein mono-ß-D-N-Acetyl-Glucosamine (FM-GlcNAc), fluorescence readout; conditions: FM-GlcNAc substrate; for Emax: read-out: Enzymatic Emax (%); for IC50: read-out: Enzymatic hOGA, pIC50 (converted)
T1 construct: Full length OGA enzyme was purchased at OnGene (cat #TP322411); purchased OnGene (so in the source)
T1 sequence (O60502 1-916): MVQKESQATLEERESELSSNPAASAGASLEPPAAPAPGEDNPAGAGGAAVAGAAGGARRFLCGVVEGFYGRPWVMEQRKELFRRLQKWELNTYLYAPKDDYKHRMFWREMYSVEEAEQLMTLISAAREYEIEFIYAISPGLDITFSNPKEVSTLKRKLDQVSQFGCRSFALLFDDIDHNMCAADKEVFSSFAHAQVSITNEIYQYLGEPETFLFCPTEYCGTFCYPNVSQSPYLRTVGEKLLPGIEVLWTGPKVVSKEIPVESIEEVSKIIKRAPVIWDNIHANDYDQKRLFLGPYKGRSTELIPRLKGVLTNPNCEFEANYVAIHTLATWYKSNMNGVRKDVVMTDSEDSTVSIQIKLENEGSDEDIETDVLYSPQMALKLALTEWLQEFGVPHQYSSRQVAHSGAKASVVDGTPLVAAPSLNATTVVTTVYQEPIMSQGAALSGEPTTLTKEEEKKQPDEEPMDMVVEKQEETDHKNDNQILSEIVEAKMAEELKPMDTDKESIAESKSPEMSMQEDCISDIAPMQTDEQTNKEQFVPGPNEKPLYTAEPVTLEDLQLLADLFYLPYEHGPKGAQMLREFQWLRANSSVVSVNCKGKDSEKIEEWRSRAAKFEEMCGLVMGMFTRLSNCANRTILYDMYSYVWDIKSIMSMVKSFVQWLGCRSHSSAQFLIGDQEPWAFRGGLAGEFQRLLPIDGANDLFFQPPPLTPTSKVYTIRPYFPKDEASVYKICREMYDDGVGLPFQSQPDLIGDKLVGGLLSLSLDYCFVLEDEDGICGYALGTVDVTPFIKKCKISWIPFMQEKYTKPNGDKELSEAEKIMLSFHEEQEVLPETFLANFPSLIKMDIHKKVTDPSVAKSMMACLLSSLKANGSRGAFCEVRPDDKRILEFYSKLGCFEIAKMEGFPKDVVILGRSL
Procedure, shortened: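 Full-length recombinant human OGA (2 nM) was pre-incubated with compound for 60 min, then reacted with 100 uM FM-GlcNAc for 6 h at room temperature in 200 mM citrate/phosphate pH 7.2 with 0.005% Tween-20. Reactions were stopped with pH 11.0 carbonate and fluorescein read at 485/538 nm. IC50 and Hill coefficient came from curve fitting.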

[2] = system: OGA in HEK293 cells inducible for P301L mutant human Tau (isoform 2N4R); experiment: OGA cellular assay: immunocytochemical detection of O-GlcNAcylated proteins (CTD110.6 antibody); assay type: cell-based; conditions: Homo sapiens, HEK293, 6 h, 6 hours incubation; for Emax: maximum = Thiamet G 200 uM; for EC50: read-out: Cellular hOGA, pEC50 (converted)
Procedure, shortened: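 Cells seeded 2 days ahead in low-glucose assay medium and exposed to compounds for 6 h at 0.2% DMSO, then PFA-fixed and immunostained. Signal is 488 nm intensity from imaging (9 fields/well), with Hoechst nuclei counts as a toxicity check. IC50 from non-linear regression, with 200 uM Thiamet G per plate as maximum inhibition.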

Structure (SMILES)	Emax [1] [%]	IC50 [1] [nM]	Emax [2] [%]	EC50 [2] [nM]	Enzymatic hOGA; pIC50 [1]
Cc1ccnc(C(C)C)c1Nc1nccc2c1ccn2CC(F)(F)C1CC1 [Compound 85]	104	0.977	94	0.708	
Cc1ccnc(C)c1Nc1nccc2c1ccn2CC(C)(C)C#N [Compound 84]	86	2140	8	> 1000	
Cc1cc(OC(F)(F)F)cc(C)c1Nc1nccc2c1ccn2CC(F)(F)C(C)C [Compound 187]	101	1.78	96.4	8.71	
COCCn1ccc2c(Nc3c(Cl)cccc3Cl)nccc21 [Compound 40]	102	81.3	30	> 1000	
CCCCn1ccc2c(Nc3c(Cl)ccc4c3OCCO4)nccc21 [Compound 51]	102	11.2	76	117	
Cc1cc(Cl)cc(C)c1Nc1nccc2c1ccn2CC(C)(F)F [Compound 150]	101		82.1	5.37	8.57
Cc1ccnc(C(C)(C)F)c1Nc1nccc2c1ccn2CC(C)(F)F [Compound 205]	98.2	3.02	88.6	9.55	
Cc1cccc(S(C)(=O)=O)c1Nc1nccc2c1ccn2CC1CC(F)(F)C1 [Compound 174]	99.3	12.9	87	93.3	
Cc1cc(F)c(F)c(C)c1Nc1nccc2c1ccn2CC(C)(F)F [Compound 153]	102		74.1	20.4	8.52
Cc1ccnc(C)c1Nc1nccc2c1ccn2CCC1COC1 [Compound 38]	100	115	63	562	
FC(F)CCn1ccc2c(Nc3c(Cl)cccc3Cl)nccc21 [Compound 97]	101		78	347	7.9
Cc1cc(C)c(Nc2nccc3c2ccn3CC(C)(F)F)c(C)c1 [Compound 135]	98.8		82.2	9.33	8.64
Cc1ccnc(C)c1Nc1nccc2c1ccn2CC1CC(F)(F)C1 [Compound 92]	103		75	151	7.38
CCCCn1ccc2c(Nc3c(Cl)cnc4c3OCCO4)nccc21 [Compound 18]	102		62	575	7.46
CCCCn1ccc2c(Nc3c(C)ccc(C(=O)NC)c3C)nccc21 [Compound 58]	101	3.09	88	72.4	
CCCCn1ccc2c(Nc3c(C)ccnc3C)nccc21 [Compound 6]	102		89	50.1	8.16
Cc1ccnc(C(C)C)c1Nc1nccc2c1ccn2CC1CCOC1 (stereo not shown) [Compound 141]	103		74.7	107	7.76
Cc1ccnc(C(C)C)c1Nc1nccc2c1ccn2CC1CC(F)(F)C1 [Compound 117]	101		89.6	44.7	8.26
CCCCn1ccc2c(Nc3c(Cl)cncc3Cl)nccc21 [Compound 42]	100	34.7	49	> 1000	
CCCCn1ccc2c(Nc3c(C)cc(C(=O)N4CCCC4)cc3C)nccc21 [Compound 75]	102	2.82	85	6.03	

Structure (SMILES)	Emax [1] [%]	IC50 [1] [nM]	Emax [2] [%]	EC50 [2] [nM]	Enzymatic hOGA; pIC50 [1]
Cc1ccnc(C)c1Nc1nccc2c1ccn2CCC(F)F [Compound 96]	102		60	513	7.1
CCC(C)Cn1ccc2c(Nc3c(Cl)cccc3Cl)nccc21.Cl (stereo not shown) [Compound 9]	105		85	30.2	8.42
CCCCn1ccc2c(Nc3c(C)cc(C(=O)N4CCOCC4)cc3C)nccc21 [Compound 56]	101	2.69	107	5.13	
CCCCn1ccc2c(Nc3c(C)cc(CF)cc3C)nccc21 [Compound 101]	103	3.24	83	57.5	
Cc1cc(C(F)(F)F)cc(C)c1Nc1nccc2c1ccn2CC1CC(F)(F)C1 [Compound 118]	102		71.7	74.1	7.89
CCCCn1ccc2c(Nc3c(C)cc4c(ncn4C)c3C)nccc21 [Compound 77]	99	4.79	83	7.41	
CCCCn1ccc2c(Nc3c(Cl)ccc4c3CCO4)nccc21 [Compound 8]	102		87	110	8.11
Cc1cc(C(F)(F)F)cc(Cl)c1Nc1nccc2c1ccn2CC(C)(F)F [Compound 128]	101		90.3	12.9	8.58
CC(C)CCn1ccc2c(Nc3c(Cl)cccc3Cl)nccc21 [Compound 60]	102	3.63	86	55	
N#CCCCn1ccc2c(Nc3c(Cl)cccc3Cl)nccc21 [Compound 50]	102	12.6	78	302	
CCC(C)Cn1ccc2c(Nc3c(C)ccnc3C)nccc21.Cl (stereo not shown) [Compound 16]	101		85	32.4	7.83
Cc1ccnc(C)c1Nc1nccc2c1ccn2CCC(C)C [Compound 47]	101	11.7	95	47.9	
Cc1cc(Cn2ccc3c(Nc4c(C)ccnc4C)nccc32)no1 [Compound 133]	101		76.1	87.1	8.16
CCCCn1ccc2c(Nc3c(Cl)cccc3Cl)nccc21 [Compound 71]	101	2.24	78	47.9	
CCCCn1ccc2c(Nc3c(C)cccc3C(C)C)nccc21 [Compound 67]	104	0.891	99	16.2	
CC[C@@H](O)Cn1ccc2c(Nc3c(C)cc(C(F)(F)F)cc3C)nccc21 [Compound 124a]	103		74.7	21.9	7.88
Cc1cc(OC(F)F)cc(Cl)c1Nc1nccc2c1ccn2CC1CC(F)(F)C1 [Compound 116]	104		61.8	55	7.98
Cc1ccnc(C)c1Nc1nccc2c1ccn2CCC(C)(C)C#N [Compound 26]	100	191	64	479	
CCCCn1ccc2c(Nc3c(C)ccc(C(=O)N(C)C)c3C)nccc21 [Compound 59]	101	4.37	88	100	
FC1(F)CC1CCn1ccc2c(Nc3c(Cl)cccc3Cl)nccc21 (stereo not shown) [Compound 95]	104		63	525	7.61
